The compounds below were run against T1, CRTH2 (Homo sapiens, UniProt Q9Y5Y4) (assay: Radioligand binding Scintillation Proximity Assay ([3H]PGD2, hCRTH2-CHO cell membranes)). Conditions: 1.5 nM [3H]PGD2, hCRTH2-CHO cell membranes, SPA.
T1 sequence (Q9Y5Y4 1-395): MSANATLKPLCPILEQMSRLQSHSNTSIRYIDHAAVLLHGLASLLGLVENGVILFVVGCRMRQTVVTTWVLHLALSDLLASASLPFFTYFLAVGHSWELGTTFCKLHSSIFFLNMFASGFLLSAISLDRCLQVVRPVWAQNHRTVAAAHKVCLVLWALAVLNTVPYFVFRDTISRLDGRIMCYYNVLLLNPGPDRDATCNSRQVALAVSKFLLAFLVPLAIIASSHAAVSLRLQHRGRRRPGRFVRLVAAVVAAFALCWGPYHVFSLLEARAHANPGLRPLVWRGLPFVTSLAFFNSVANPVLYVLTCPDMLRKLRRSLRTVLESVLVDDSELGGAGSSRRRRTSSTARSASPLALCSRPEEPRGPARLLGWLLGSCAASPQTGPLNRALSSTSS
Parameters: host or cells: CHO cells
Method in brief: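 SPA competition binding at room temperature, 90 min with agitation: 1.5 nM [3H]PGD2, 10-50 μg/ml hCRTH2-CHO membrane protein, WGA SPA beads, HEPES pH 7.4 with 10 mM MnCl2, 1% DMSO. Non-specific binding defined with 10 μM PGD2; scintillation counting.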

Structure (SMILES)	IC50
CS(=O)(=O)c1cc(C#Cc2cc(Cl)ccc2OCC(=O)O)ccc1-c1ccc(Cl)cc1 [Example 144, (4-chloro-2-{[4′-chloro-2-(methylsulfonyl)biphenyl-4-yl]ethynyl}phenoxy)acetic acid]	17 nM
CS(=O)(=O)c1cc(C#Cc2cc(Cl)ccc2OCC(=O)O)ccc1-c1cccc(Cl)c1 [Example 145, (4-chloro-2-{[3′-chloro-2-(methylsulfonyl)biphenyl-4-yl]ethynyl}phenoxy)acetic acid]	19 nM
CS(=O)(=O)c1cc(C#Cc2cc(Cl)ccc2OCC(=O)O)ccc1-c1ccccc1Cl [Example 146, (4-chloro-2-{[2′-chloro-2-(methylsulfonyl)biphenyl-4-yl]ethynyl}phenoxy)acetic acid]	4 nM
O=C(O)COc1ccc2ccccc2c1C#Cc1cccc(O)c1 [Example 147, ({1-[(3-hydroxyphenyl)ethynyl]-2-naphthyl}oxy)acetic acid]	102 nM
CCCS(=O)(=O)c1cccc(C#Cc2c(OCC(=O)O)ccc3ccccc23)c1 [Example 148, [(1-{[3-(propylsulfonyl)phenyl]ethynyl}-2-naphthyl)oxy]acetic acid]	56 nM
CCC[S+]([O-])c1ccc(C)c(C#Cc2cc(Cl)ccc2OCC(=O)O)c1 (stereo not shown) [Example 149, (4-chloro-2-{[2-methyl-5-(propylsulfinyl)phenyl]ethynyl}phenoxy)acetic acid]	11 nM
O=C(O)COc1ccc(Cl)cc1C#Cc1ccc(NC(=O)c2ccc(C(F)(F)F)cc2)cc1 [Example 150, {4-chloro-2-[(4-{[4-(trifluoromethyl)benzoyl]amino}phenyl)ethynyl]phenoxy}acetic acid]	267 nM
O=C(O)COc1ccc(Cl)cc1C#Cc1ccc(NC(=O)c2ccccc2)cc1 [Example 151, (2-{[4-(benzoylamino)phenyl]ethynyl}-4-chlorophenoxy)acetic acid]	28 nM
CCCS(=O)(=O)c1cc(C#Cc2cc(Cl)ccc2OCC(=O)O)c(C)cc1NC(C)=O [Example 153, (2-{[4-(acetylamino)-2-methyl-5-(propylsulfonyl)phenyl]ethynyl}-4-chlorophenoxy)acetic acid]	1 nM
O=C(O)COc1ccc(Cl)cc1C#Cc1ccc2c(c1)S(=O)(=O)CC2 [Example 155, {4-chloro-2-[(1,1-dioxido-2,3-dihydro-1-benzothien-6-yl)ethynyl]phenoxy}acetic acid]	29 nM
O=C(O)COc1ccc(Cl)cc1C#Cc1ccc2c(c1)S(=O)(=O)C=C2 [Example 156, {4-chloro-2-[(1,1-dioxido-1-benzothien-6-yl)ethynyl]phenoxy}acetic acid]	32 nM
CC(C)(C)N1C(=O)c2ccc(C#Cc3cc(Cl)ccc3OCC(=O)O)cc2S1(=O)=O [Example 157, {2-[(2-tert-butyl-1,1-dioxido-3-oxo-2,3-dihydro-1,2-benzisothiazol-6-yl)ethynyl]-4-chlorophenoxy}acetic acid]	17 nM
CC1(C)C(=O)c2ccc(C#Cc3cc(Cl)ccc3OCC(=O)O)cc2S1(=O)=O [Example 158, {4-chloro-2-[(2,2-dimethyl-1,1-dioxido-3-oxo-2,3-dihydro-1-benzothien-6-yl)ethynyl]phenoxy}acetic acid]	34 nM
CC1(C)C(O)c2ccc(C#Cc3cc(Cl)ccc3OCC(=O)O)cc2S1(=O)=O (stereo not shown) [Example 159, {4-chloro-2-[(3-hydroxy-2,2-dimethyl-1,1-dioxido-2,3-dihydro-1-benzothien-6-yl)ethynyl]phenoxy}acetic acid]	37 nM
CC1(O)c2ccc(C#Cc3cc(Cl)ccc3OCC(=O)O)cc2S(=O)(=O)C1(C)C (stereo not shown) [Example 160, {4-chloro-2-[(3-hydroxy-2,2,3-trimethyl-1,1-dioxido-2,3-dihydro-1-benzothien-6-yl)ethynyl]phenoxy}acetic acid]	32 nM
COC1c2ccc(C#Cc3cc(Cl)ccc3OCC(=O)O)cc2S(=O)(=O)C1(C)C (stereo not shown) [Example 161, {4-chloro-2-[(3-methoxy-2,2-dimethyl-1,1-dioxido-2,3-dihydro-1-benzothien-6-yl)ethynyl]phenoxy}acetic acid]	24 nM
CCCCN(C)C(=O)c1ccc(C#Cc2cc(Cl)ccc2OCC(=O)O)cc1S(=O)(=O)C(C)C [Example 163, (2-{[4-{[butyl(methyl)amino]carbonyl}-3-(isopropylsulfonyl)phenyl]ethynyl}-4-chlorophenoxy)acetic acid]	32 nM
CC(C)S(=O)(=O)c1cc(C#Cc2cc(Cl)ccc2OCC(=O)O)ccc1C(=O)N(C)C [Example 164, (4-chloro-2-{[4-[(dimethylamino)carbonyl]-3-(isopropylsulfonyl)phenyl]ethynyl}phenoxy)acetic acid]	75 nM
CCN(CC)C(=O)c1ccc(C#Cc2cc(Cl)ccc2OCC(=O)O)cc1S(=O)(=O)C(C)C [Example 165, (4-chloro-2-{[4-[(diethylamino)carbonyl]-3-(isopropylsulfonyl)phenyl]ethynyl}phenoxy)acetic acid]	53 nM
CCCN(CC)C(=O)c1ccc(C#Cc2cc(Cl)ccc2OCC(=O)O)cc1S(=O)(=O)C(C)C [Example 166, (4-chloro-2-{[4-{[ethyl(propyl)amino]carbonyl}-3-(isopropylsulfonyl)phenyl]ethynyl}phenoxy)acetic acid]	43 nM
CC(C)S(=O)(=O)c1cc(C#Cc2cc(Cl)ccc2OCC(=O)O)ccc1C(=O)N1CCOCC1 [Example 167, (4-chloro-2-{[3-(isopropylsulfonyl)-4-(morpholin-4-ylcarbonyl)phenyl]ethynyl}phenoxy)acetic acid]	100 nM
CCCS(=O)(=O)c1ccc(F)c(C#Cc2cc(Cl)ccc2OC(C)(C)C(=O)O)c1 [Example 169, 2-(4-chloro-2-{[2-fluoro-5-(propylsulfonyl)phenyl]ethynyl}phenoxy)-2-methylpropanoic acid]	287 nM
CCCS(=O)(=O)c1ccc(C)c(C#Cc2cc(Cl)ccc2OC(CC)C(=O)O)c1 (stereo not shown) [Example 170, 2-(4-chloro-2-{[2-methyl-5-(propylsulfonyl)phenyl]ethynyl}phenoxy)butanoic acid]	35 nM
CCCC(Oc1ccc(Cl)cc1C#Cc1cc(S(=O)(=O)CCC)ccc1C)C(=O)O (stereo not shown) [Example 171, 2-(4-chloro-2-{[2-methyl-5-(propylsulfonyl)phenyl]ethynyl}phenoxy)pentanoic acid]	66 nM
CCCS(=O)(=O)c1ccc(C)c(C#Cc2cc(Cl)ccc2OC(CC(C)C)C(=O)O)c1 (stereo not shown) [Example 172, 2-(4-chloro-2-{[2-methyl-5-(propylsulfonyl)phenyl]ethynyl}phenoxy)-4-methylpentanoic acid]	60 nM

From patent publication US8273769B2, “Phenoxy acetic acid derivatives” (Merck Serono SA, priority 2009, dated 2012)
